# Measured values from patent publication US12576155B2, “Senolytic and antiinflammatory prodrugs and methods of use thereof” (priority 2019, dated 2026).
# Legend:
# [1] = test system: SARS-CoV-2-infected rhesus macaques; experiment: SARS-CoV-2-infected rhesus macaques, early-stage SSK1 treatment (2.0 mg/kg once daily for 7 days from 0 dpi); type: in vivo; details: for Clinical observation: Body weight change (%) / Clinical observation: Increased temperature: 2.0 mg/kg
# [2] = test system: primary mouse fibroblasts and their replication-induced senescent counterparts; experiment: Cell viability testing, senescent vs non-senescent primary mouse fibroblasts; type: cell-based; details: increasing doses; senescent vs non-senescent cells
# Experimental: Mouse embryonic fibroblasts (MEFs) were isolated from E13.5 embryos as described previously (Zhao et al., Cell Stem Cell 23, 31-45 e37([…])). Newborn mouse skin fibroblasts (NBFs) were isolated from the skin of day 1-3 newborn mice. Adult mouse lung fibroblasts were isolated from 2-month-old and 23-month-old mice. Briefly, mouse embryonic tissues, skin and lung were obtained from described donor mice. Then, these tissues were minced with forceps and incubated in 2 mg/ml collagenase IV (Gibco) for 2-4 hours at 37° C. After enzyme treatment, cells were collected by centrifugation and resuspended in high-glucose DMEM (Gibco) supplemented with 10% fetal bovine serum (FBS) and 1% penicillin-streptomycin (Gibco). The three types of mouse primary cells were all cultured in a humidified incubator at 37° C. and 5% CO2.
# To avoid replication-induced senescent cells, low-passage proliferative NBFs (<3 passages), MEFs (<3 passages), mouse lung fibroblasts (<3 passages), HEFs (<10 passages), and HUVECs (<6 passages) were used as normal controls. To induce cell quiescence, MEFs were cultured in DMEM without FBS for 2 days.
# For replication-induced senescence, cells were passaged until they lost the ability to proliferate and became senescent. NBFs were used as senescent cells after approximately 8-9 passages or 12 population doublings. HEFs were used after approximately 35 passages or 50 population doublings. HUVECs were senescent after approximately 18 passages or 24 population doublings.
# To test the viability of senescent and non-senescent cells treated with SSK1, cells were stained with a mixture of Hoechst 33342 and propidium iodide (PI) (CA1120, Solarbio) to distinguish living and dead cells. After treatment with the small molecules, the cell culture medium was removed, and the cells were washed once with PBS. […] The plate was incubated at 4° C. for 30 min and observed on a fluorescence microscope or automatic cell imaging system. Viable cells were quantified using a MD Image Xpress Micro XL (Molecular Devices).
structure (smiles),measurement,setting,value
CC(=O)OCC1O[C@@H](Oc2ccc(COC(=O)Nc3ccn([C@@H]4O[C@H](CO)C(O)C4(F)F)c(=O)n3)cc2[N+](=O)[O-])C(OC(C)=O)C(OC(C)=O)[C@H]1OC(C)=O (some centres unmarked) [SSK1],Progression of pulmonary infiltrates on chest X-ray,[1]; 6 dpi compared to 3 dpi,no progression
same,Clinical observation: Body weight change (%),[1]; M1 adult 5-year,+4.62%
same,Clinical observation: Increased temperature,[1]; M1 adult 5-year,light
same,Clinical observation: Body weight change (%),[1]; M2 adult 5-year,+1.64%
same,Clinical observation: Increased temperature,[1]; M2 adult 5-year,light
same,Large necrotic lesions in the livers at necropsy,[1]; SSK1-treated group,not in the SSK1-treated group
same,Lung histopathology (H&E),[1]; SSK1-treated group,minimally thickened alveolar septum and focal edema
same,Serum level of IL-18,[1]; SSK1-treated group,increased significantly
same,"Virus shedding (virus load in nose, throat, anal swabs and blood, RT-qPCR)",[1]; SSK1-treated group,no delay but even faster reduction in virus shedding
same,Body temperature,"[1]; SSK1-treated group, 2 mg/kg",relatively stable
same,Body weight,"[1]; SSK1-treated group, 2 mg/kg, 0 to 7 dpi",remained constant
same,Airway narrowing and mucinous secretions (AB-PAS staining),[1]; SSK1 treatment,recovered the airway narrowing and extensive mucinous secretions
same,Gross lung lesions at necropsy,[1]; animal M1,Some brown punctate lesions
same,Pulmonary hemorrhages (H&E),[1]; animal M1,local pulmonary hemorrhages
same,Ground-glass opacification in the lungs on X-ray,"[1]; animal M1, 2 mg/kg, 3 dpi",Ground-glass opacification appeared
same,Gross lung lesions at necropsy,[1]; animal M2,No obvious lung lesions
same,Signs of pneumonia on X-ray,"[1]; animal M2, 2 mg/kg",no signs of pneumonia on X-ray throughout the experiment
same,"Concentrations of inflammatory cytokines GM-CSF, IL-1β, IL-12, MIP-1A and TNF-α in lung tissues",[1]; vs vehicle,lower
same,Viral load in the respiratory tract tissues and multiple organs,[1]; vs vehicle-treated group,grossly lower
same,Selective killing of senescent cells (viable cells),[2],selectively and potently eliminated SA-β-gal-positive senescent cells over non-senescent cells with a wide therapeutic window
